Laboratory results as given in US10231908B2, “Method of reducing hair loss associated with chemotherapy” (Galderma S.A., priority 2015, dated 2019).
“Also recorded” adds a separate entry of the source. Where a name gives a salt, the structure may show the parent alone.

Tests used:
[1] = test system: cyclophosphamide-induced alopecia in C57B16 mice; test: Cyclophosphamide-induced alopecia in mice after anagen induction by depilation; assay type: in vivo; conditions: for % of alopecia versus control: read on day 15
[2] = epinephrine 450 mM topical plus CYP at day 9

SMILES | % of alopecia versus control ([1]; brimonidine 35 mM (1%) topical, 100 μL, at t-2 hours and repeated 2 hours later, CYP 120 mg/kg i.p. at day 9) | hair shedding in dorsal depilated area (representative pictures) ([1]; topical brimonidine, CYP-injected mice, day 15 after depilation) | % of alopecia versus control ([1]; epinephrine 450 mM topical, 20 min before and 10, 40 and 60 min after CYP 120 mg/kg i.p. at day 9, hydrochloride) | body weight of mice [2]
Brc1c(NC2=NCCN2)ccc2nccnc12 [Brimonidine, Brimonidine tartrate] | prevents alopecia; also recorded: prevented hair loss | more hairs did not shed |  | 
CNC[C@H](O)c1ccc(O)c(O)c1 [Epinephrine, Epinephrine hydrochloride] |  |  | worsened it; also recorded: worsened alopecia | temporarily decreased the body weight
